Laboratory results taken from patent EP2966448B1, “METHOD FOR THE PREDICTION OR PROGNOSIS OF THE RESPONSE OF A HUMAN SUBJECT SUFFERING FROM CANCER TO TREATMENT WITH AN ANTAGONIST OF THE NK1 RECEPTOR” (priority 2013, dated 2014).
Like-named read-outs stand apart in the source and are kept apart here.

Key:
Gastric carcinoma = test: Inhibition of primary tumor cell cultures (48 hours) vs NK1 receptor immunostaining (Example 1); assay type: cell-based; details: Homo sapiens, 1 micromolar, read-out: Percentage of inhibition of cell cultures
Method: (§1) Cell cultures. To obtain tumor cells from human primary tumors we used the method described in De Bari et al. (De Bari et al. 2001). Briefly, small pieces of the tumors were digested into a hyaluronidase solution (Sigma-Aldrich, USA) at a concentration of 1 mg/ml during 15 minutes at 37°C, and then they were treated with 6 mg/ml of collagenase type IV (Invitrogen) during 2 hours at 37°C. Consecutively, cells were washed, and resuspended in the DMEM culture medium with high concentration of glucose (Dulbecco's Modified Eagle's Medium, Invitrogen) supplemented with 1% of antibiotics-antimycotics (Invitrogen) and with 1% of sodium pyruvate (Invitrogen), and the cells were seeded in culture slides at a concentration of 10.000 cells per square centimeter. When cells reached confluence, the adherent cells were separated using sterile trypsin at 0,5% (Invitrogen) and they were used among passages 3 and 9. For the assays shown next, tumor cells were seeded on slides at a concentration of 25.000 cells per well. A total of 6 wells containing the tumor cells were used as survival control. […] All the cultures were kept during 48 hours and later on recollected for their analysis.
(§2) Immunohistochemistry techniques. The presence of NK1 receptors was also analyzed using immunohistochemistry techniques. Briefly, a sample of each of the cultures of the cell lines used in the present invention, was centrifuged (5 minutes at 1.500 rpm) and the pellet obtained was dehydrated using increasing concentrations of ethanol and, finally, xylol. Then, said dehydrated samples were embedded in paraffin, creating a block of cells. Such paraffin blocks were cut with a microtome at 5 microns thickness, and were placed on microscope slides adequate to perform immunohistochemistry techniques. Consecutively, they were de-paraffinized by immersing them in xylol, to be finally hydrated using a solution containing decreasing concentrations of ethanol, and finally submerged them into water. […] After this, the samples were left to cool down at room temperature for 10 minutes. The endogenous peroxidase activity was blocked with 3% peroxide of hydrogen for 30 minutes at room temperature. After washing the samples with 0.05 M of Tris buffer, they were incubated with 10% non-immune pork serum at for 30 minutes at room temperature. To analyze the expression of NK1 receptors, the cellular samples were incubated in the presence of anti-NK1 antibodies (S8305, Sigma-Aldrich) diluted 1:1000, overnight at 4°C. Afterwards, the samples were washed in Tris buffer 0.05 M at room temperature. The next step was the addition of Envision System-HRP (Dako) reagents for 30 minutes at room temperature. Then, the samples were washed again in Tris buffer 0.05 M and the immunoreactivity was visualized through light microscopy with a chromogenic solution containing 3,3'-Diaminobenzidine (DAB+; Dako, USA). To differentiate the cell nuclei, they were slightly stained with hematoxylin. As negative control, it was used samples not incubated with the primary antibody anti-NK1, which was replaced by non-immune serum. All the samples were evaluated.
(§3) To value the immunostaining in each of the cases six cuts were performed to be analyzed by the immunohistochemistry technique. In each of the six cuts, it was counted cells in 20 fields (magnification 400x) using an Olympus microscope (model CX31). In each field it was counted the total number of cells and the number of cells presenting immunostaining, calculating afterwards the percentage of cells which presented immunostaining.

[1] = test system: Non Hodgkin Lymphoma B (diffuse B cell lymphoma); test: Inhibition of primary tumor cell cultures vs Kras mutation (Example 2); assay type: cell-based, human; details: Non Hodgkin Lymphoma B (diffuse B cell lymphoma), 100 micromolar
Method: as §1
(§4) In each case the presence or not of mutations in K-ras gene was determined.
(§5) To determine the existence of mutations in the K-ras gene DNA from cancer tumor cells was extracted from samples obtained from the different cancer tumor cells, using DNA extraction kits from Takara (Madison, WI, US) or Ambion (Huntingdon, Cambridgeshire, United Kingdom), following the manufacturer's instructions, and as it has been previously published (Di Fiore F, et al. 2007). Consecutively it was analyzed by sequencing the exon 2 of the KRAS gene, , by means of PCR amplification from previously extracted cancer tumor DNA, using the following sense primer (SEQ ID NO. 15): 5'-[sequence]-3' and anti-sense primer (SEQ ID NO. 16): 5'-[sequence]-3'. After the purification using the Qiagen extraction kit, the PCR products were sequenced using the Big Dye Terminator Kit V3.1 (Applied Biosystems, Foster City, CA, U.S.) and an ABI Prism 377 or 3100 DNA sequencer (Applied Biosystems). The presence of a heterozygous mutation in the KRAS gene in cancer tumor cells of the cultures was defined as the appearance of a mutant peak of a height of at least a third of the wild type. All the sequence analysis were executed at least twice in two independent PCR.
(§6) The percentages of inhibition are expressed in percentage of variation in relation to control ± standard deviation.

[2] = test system: Lung carcinoma (small cell type); test: Inhibition of primary tumor cell cultures (48 hours) vs NK1 receptor immunostaining (Example 1); assay type: cell-based; details: Homo sapiens, 1 micromolar, read-out: Percentage of inhibition of cell cultures
Method: as §1, §2, §3

[3] = test system: Thyroid carcinoma (folliculary type); test: as above; assay type: cell-based; details: Homo sapiens, 1 micromolar, read-out: Percentage of inhibition of cell cultures
Method: as §1, §2, §3

[4] = test system: Non Hodgkin Lymphoma T (diffuse T cell lymphoma); test: Inhibition of primary tumor cell cultures vs Kras mutation (Example 2); assay type: cell-based, human; details: Non Hodgkin Lymphoma T (diffuse T cell lymphoma), 100 micromolar
Method: as §1, §4, §5, §6

Breast carcinoma = test: Inhibition of primary tumor cell cultures (48 hours) vs NK1 receptor immunostaining (Example 1); assay type: cell-based; details: Homo sapiens, 1 micromolar, read-out: Percentage of inhibition of cell cultures
Method: as §1, §2, §3

Colon carcinoma = test: as above; assay type: cell-based; details: Homo sapiens, 1 micromolar, read-out: Percentage of inhibition of cell cultures
Method: as §1, §2, §3

[5] = test system: Ovarian carcinoma (Adenocarcinoma); test: Inhibition of primary tumor cell cultures vs Kras mutation (Example 2); assay type: cell-based, human; details: Ovarian carcinoma (Adenocarcinoma), 100 micromolar
Method: (§7) Cell cultures. […] Briefly, small pieces of the tumors were digested into a hyaluronidase solution (Sigma-Aldrich, USA) at a concentration of 1 mg/ml during 15 minutes at 37°C, and then they were treated with 6 mg/ml of collagenase type IV (Invitrogen) during 2 hours at 37°C. Consecutively, cells were washed, and resuspended in the DMEM culture medium with high concentration of glucose (Dulbecco's Modified Eagle's Medium, Invitrogen) supplemented with 1% of antibiotics-antimycotics (Invitrogen) and with 1% of sodium pyruvate (Invitrogen), and the cells were seeded in culture slides at a concentration of 10.000 cells per square centimeter. When cells reached confluence, the adherent cells were separated using sterile trypsin at 0,5% (Invitrogen) and they were used among passages 3 and 9. For the assays shown next, tumor cells were seeded on slides at a concentration of 25.000 cells per well. A total of 6 wells containing the tumor cells were used as survival control. […] All the cultures were kept during 48 hours and later on recollected for their analysis.
as §4, §5
(§8) The antibody against NK1 receptor (Table 16) was used at 1/50 concentration. The percentages of inhibition are expressed in percentage of variation in relation to control ± standard deviation.

[6] = test system: Undifferentiated Pleomorphic Sarcoma (malignant fibrous histiocytoma grade 3); test: as above; assay type: cell-based, human; details: Undifferentiated Pleomorphic Sarcoma (malignant fibrous histiocytoma grade 3), 100 micromolar
Method: as §1, §4, §5, §6

Burkitt Lymphoma = test: Inhibition of primary tumor cell cultures (48 hours) vs NK1 receptor immunostaining (Example 1); assay type: cell-based; details: Homo sapiens, 1 micromolar, read-out: Percentage of inhibition of cell cultures
Method: as §1, §2, §3

Non Hodgkin Lymphoma B = test: as above; assay type: cell-based; details: Homo sapiens, 1 micromolar, read-out: Percentage of inhibition of cell cultures
Method: as §1, §2, §3

[7] = test system: Melanoma (Nodular Melanoma); test: Inhibition of primary tumor cell cultures vs Kras mutation (Example 2); assay type: cell-based, human; details: Melanoma (Nodular Melanoma), 100 micromolar
Method: as §1, §4, §5, §6

Endometrium carcinoma = test: as above; assay type: cell-based, human; details: Endometrium carcinoma, 100 micromolar
Method: as §7, §4, §5, §8

Hodgkin lymphoma = test: Inhibition of primary tumor cell cultures (48 hours) vs NK1 receptor immunostaining (Example 1); assay type: cell-based; details: Homo sapiens, 1 micromolar, read-out: Percentage of inhibition of cell cultures
Method: as §1, §2, §3

[8] = NK1 receptor immunostaining Intensity grade 1
[9] = NK1 receptor immunostaining Intensity grade 2
[10] = NK1 receptor immunostaining Intensity grade 3
[11] = Cases with Kras non-mutated (wild type)
[12] = NK1 receptor immunostaining Group 1 (less than 20% of the cells)
[13] = NK1 receptor immunostaining Group 2 (20-80% of the cells)
[14] = NK1 receptor immunostaining Group 3 (more than 80% of the cells)

Cc1cc(F)ccc1[C@H]1CNCCN1C(=O)N(C)[C@H](C)c1cc(C(F)(F)F)cc(C(F)(F)F)c1 [Vestipitant]
inhibition at 1 µM (Gastric carcinoma; [8]): 19 ± 4% | inhibition at 1 µM (Gastric carcinoma; [9]): 49 ± 4% | inhibition at 1 µM (Gastric carcinoma; [10]): 92 ± 4% | Percentage of inhibition of cell cultures ([1]; Cases with Kras mutated): 24±4 percentage | Percentage of inhibition of cell cultures [1, 11]: 97±6 percentage | inhibition at 1 µM [2, 12]: 16 ± 3% | inhibition at 1 µM [2, 13]: 46 ± 3% | inhibition at 1 µM [2, 14]: 93 ± 3% | inhibition at 1 µM [2, 8]: 18 ± 3% | inhibition at 1 µM [2, 9]: 45 ± 3% | inhibition at 1 µM [2, 10]: 93 ± 3% | inhibition at 1 µM [3, 12]: 16 ± 3% | inhibition at 1 µM [3, 13]: 45 ± 3% | inhibition at 1 µM [3, 14]: 95 ± 5% | inhibition at 1 µM [3, 8]: 19 ± 4% | inhibition at 1 µM [3, 9]: 46 ± 4% | inhibition at 1 µM [3, 10]: 95 ± 3% | Percentage of inhibition of cell cultures ([4]; Cases with Kras mutated): 25±5 percentage | Percentage of inhibition of cell cultures [4, 11]: 96±5 percentage | inhibition at 1 µM (Breast carcinoma; [12]): 12 ± 3% | inhibition at 1 µM (Breast carcinoma; [13]): 46 ± 3% | inhibition at 1 µM (Breast carcinoma; [14]): 93 ± 4% | inhibition at 1 µM (Breast carcinoma; [8]): 19 ± 4% | inhibition at 1 µM (Breast carcinoma; [9]): 45 ± 3% | inhibition at 1 µM (Breast carcinoma; [10]): 93 ± 3% | inhibition at 1 µM (Colon carcinoma; [12]): 12 ± 4% | inhibition at 1 µM (Colon carcinoma; [13]): 45 ± 3% | inhibition at 1 µM (Colon carcinoma; [14]): 91 ± 2% | inhibition at 1 µM (Colon carcinoma; [8]): 18 ± 5% | inhibition at 1 µM (Colon carcinoma; [9]): 46 ± 4% | inhibition at 1 µM (Colon carcinoma; [10]): 91 ± 5% | Percentage of inhibition of cell cultures ([5]; Cases with Kras mutated): 27±5 percentage | Percentage of inhibition of cell cultures [5, 11]: 96±6 percentage | Percentage of inhibition of cell cultures ([6]; Cases with Kras mutated): 26±4 percentage | Percentage of inhibition of cell cultures [6, 11]: 95±6 percentage | inhibition at 1 µM (Burkitt Lymphoma; [12]): 12 ± 3% | inhibition at 1 µM (Burkitt Lymphoma; [13]): 45 ± 3% | inhibition at 1 µM (Burkitt Lymphoma; [14]): 92 ± 4% | inhibition at 1 µM (Burkitt Lymphoma; [8]): 15 ± 3% | inhibition at 1 µM (Burkitt Lymphoma; [9]): 47 ± 5% | inhibition at 1 µM (Burkitt Lymphoma; [10]): 92 ± 6% | inhibition at 1 µM (Non Hodgkin Lymphoma B; [12]): 14 ± 3% | inhibition at 1 µM (Non Hodgkin Lymphoma B; [13]): 45 ± 5% | inhibition at 1 µM (Non Hodgkin Lymphoma B; [14]): 93 ± 5% | inhibition at 1 µM (Non Hodgkin Lymphoma B; [8]): 16 ± 4% | inhibition at 1 µM (Non Hodgkin Lymphoma B; [9]): 47 ± 5% | inhibition at 1 µM (Non Hodgkin Lymphoma B; [10]): 93 ± 4% | Percentage of inhibition of cell cultures ([7]; Cases with Kras mutated): 23±5 percentage | Percentage of inhibition of cell cultures [7, 11]: 96±5 percentage | Percentage of inhibition of cell cultures (Endometrium carcinoma; Cases with Kras mutated): 24±6 percentage | Percentage of inhibition of cell cultures (Endometrium carcinoma; [11]): 95±4 percentage | inhibition at 1 µM (Hodgkin lymphoma; [12]): 14 ± 3% | inhibition at 1 µM (Hodgkin lymphoma; [13]): 46 ± 3% | inhibition at 1 µM (Hodgkin lymphoma; [14]): 92 ± 5% | inhibition at 1 µM (Hodgkin lymphoma; [8]): 16 ± 4% | inhibition at 1 µM (Hodgkin lymphoma; [9]): 48 ± 3% | inhibition at 1 µM (Hodgkin lymphoma; [10]): 92 ± 4%
